Measurements as given in patent US12583861B2, “Derivatives of imidazo[4,5-d]pyridazine, their preparation and their therapeutic application” (SANOFI, priority 2021, dated 2026).
pEC50: −log10 of the molar value.

Tests used:
human TLR7 = target: T1, human TLR7 (Homo sapiens, UniProt Q9NYK1); assay: HEK-Blue hTLR7 reporter cell assay (SEAP, NF-kB/AP-1) for stimulation of human TLR7; type: cell-based; conditions: HEK-Blue hTLR7 cells; for pEC50: 24 h incubation, SEAP readout, read-out: TLR7_EC50
T1 construct: host or cells: HEK293 (HEK-Blue hTLR7)
T1 sequence (Q9NYK1 27-1049): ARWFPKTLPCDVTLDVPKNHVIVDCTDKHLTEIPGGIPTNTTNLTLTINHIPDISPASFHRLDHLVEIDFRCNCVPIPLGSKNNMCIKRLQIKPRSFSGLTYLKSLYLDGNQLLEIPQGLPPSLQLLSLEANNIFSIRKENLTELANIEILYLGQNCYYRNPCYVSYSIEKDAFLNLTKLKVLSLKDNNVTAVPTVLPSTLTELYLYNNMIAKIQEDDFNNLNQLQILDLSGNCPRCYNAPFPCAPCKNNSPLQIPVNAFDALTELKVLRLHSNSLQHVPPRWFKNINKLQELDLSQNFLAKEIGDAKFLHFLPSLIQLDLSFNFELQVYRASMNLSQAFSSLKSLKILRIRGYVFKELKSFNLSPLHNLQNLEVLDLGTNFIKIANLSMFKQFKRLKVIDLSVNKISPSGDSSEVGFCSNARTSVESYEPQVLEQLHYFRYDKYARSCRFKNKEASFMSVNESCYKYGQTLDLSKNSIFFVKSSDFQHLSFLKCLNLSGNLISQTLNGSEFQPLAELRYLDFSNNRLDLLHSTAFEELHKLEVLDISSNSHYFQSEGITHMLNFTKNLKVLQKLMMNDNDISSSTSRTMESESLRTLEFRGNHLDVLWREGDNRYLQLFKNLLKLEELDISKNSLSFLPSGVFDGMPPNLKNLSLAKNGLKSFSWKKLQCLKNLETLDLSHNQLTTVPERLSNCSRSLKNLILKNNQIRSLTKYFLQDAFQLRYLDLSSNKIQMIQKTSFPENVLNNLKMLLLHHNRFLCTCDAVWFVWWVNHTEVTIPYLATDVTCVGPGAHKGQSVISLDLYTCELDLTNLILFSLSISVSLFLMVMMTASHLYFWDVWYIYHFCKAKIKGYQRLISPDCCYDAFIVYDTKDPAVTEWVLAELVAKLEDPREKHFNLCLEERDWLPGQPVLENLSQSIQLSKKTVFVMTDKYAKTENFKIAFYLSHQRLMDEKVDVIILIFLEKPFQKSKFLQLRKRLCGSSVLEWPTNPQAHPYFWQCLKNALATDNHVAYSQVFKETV
Procedure: (§1) The below tests, involving measuring the in vitro activity of some compounds of the disclosure on TLR7 and TLR8, were carried out using the HEK-Blue™ cells as reporter.
The activity described below, with respect to TLR7, TLR8, IFN-α2a, IL-6, IL29 and TNF-α, is given by the half maximal effective concentration (EC50), which corresponds to the concentration required to obtain a 50% of the activation. The lower the EC50, the less the concentration of the compound is required to produce 50% of maximum activation and the higher the potency.
(§2) In Vitro Assay for Studying the Stimulation of Human TLR7 and TLR8:
(§3) HEK-Blue™ hTLR7 Cells (#hkb-htlr7) and HEK-Blue™ hTLR8 Cells (#hkb-htlr8) from InvivoGen were used according to the manufacturer's instructions. These Reporter HEK293 cells were obtained by co-transfection of the hTLR7 or TLR8 gene and an optimized Secreted Embryonic Alkaline Phosphatase (SEAP) reporter gene which is placed under the control of the IFN-β minimal promoter fused to five NF-κB and AP-1-binding sites. Stimulation with a TLR7/8 ligand activates NF-kB and AP-1 which induce the production of SEAP. The cells are seeded in 96-well plate at 3.10E4 cells/well and incubated 18 to 24 h at 37° C., 5% CO2 before adding the compounds to evaluate. The cells are subsequently incubated with 3-fold serial dilutions of each of the compounds (0.01 to 20 μM) for 24 hours at 37° C., 5% CO2. Next, 20 μL of the supernatant is harvested and incubated with 200 μL of QUANTI-Blue™ Solution.

human TLR8 = target: T2, human TLR8 (Homo sapiens, UniProt Q9NR97); assay: HEK-Blue hTLR8 reporter cell assay (SEAP, NF-kB/AP-1) for stimulation of human TLR8; type: cell-based; conditions: HEK-Blue hTLR8 cells; for pEC50: 24 h incubation, SEAP readout, read-out: TLR8_EC50
T2 construct: host or cells: HEK293 (HEK-Blue hTLR8)
T2 sequence (Q9NR97 27-1041): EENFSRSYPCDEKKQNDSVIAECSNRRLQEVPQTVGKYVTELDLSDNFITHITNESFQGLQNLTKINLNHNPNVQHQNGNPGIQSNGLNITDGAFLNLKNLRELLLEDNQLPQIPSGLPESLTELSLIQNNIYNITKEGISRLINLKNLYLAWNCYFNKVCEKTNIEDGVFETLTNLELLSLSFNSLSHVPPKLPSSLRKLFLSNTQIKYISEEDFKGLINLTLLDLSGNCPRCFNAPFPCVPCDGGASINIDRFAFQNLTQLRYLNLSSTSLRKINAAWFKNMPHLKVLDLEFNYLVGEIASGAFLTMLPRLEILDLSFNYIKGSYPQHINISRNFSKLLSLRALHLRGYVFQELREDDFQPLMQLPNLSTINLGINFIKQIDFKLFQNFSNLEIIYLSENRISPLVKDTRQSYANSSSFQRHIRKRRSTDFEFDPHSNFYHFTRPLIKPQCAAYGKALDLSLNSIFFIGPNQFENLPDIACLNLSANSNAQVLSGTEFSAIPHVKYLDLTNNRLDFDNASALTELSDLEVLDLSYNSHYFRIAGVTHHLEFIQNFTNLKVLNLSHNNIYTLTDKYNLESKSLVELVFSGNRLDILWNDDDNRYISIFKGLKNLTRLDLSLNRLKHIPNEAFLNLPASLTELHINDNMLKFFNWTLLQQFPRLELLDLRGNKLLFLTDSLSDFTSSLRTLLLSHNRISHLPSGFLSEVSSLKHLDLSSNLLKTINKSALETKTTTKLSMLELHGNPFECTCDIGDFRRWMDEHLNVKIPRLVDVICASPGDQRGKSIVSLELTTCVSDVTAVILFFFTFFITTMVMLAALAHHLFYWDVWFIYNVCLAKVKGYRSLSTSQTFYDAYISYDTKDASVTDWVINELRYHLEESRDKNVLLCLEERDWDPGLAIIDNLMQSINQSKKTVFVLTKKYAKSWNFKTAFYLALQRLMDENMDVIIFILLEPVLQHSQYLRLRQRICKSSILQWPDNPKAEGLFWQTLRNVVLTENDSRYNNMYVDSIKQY
Procedure: as §1, §2
as §3, with “The cells are subsequently incubated with 3-fold serial dilutions of each of the compounds (0.01 to 20 μM) for 24 hours at 37° C., 5% CO2.” left out

SMILES	pEC50 (human TLR7)	pEC50 (human TLR8)	activation at 20 µM (human TLR7; 24 h, at 20000 nM)	activation at 20 µM (human TLR8; 24 h, at 20000 nM)
CCCCc1nc2c(N)nnc(-c3ccoc3)c2n1Cc1ccc(OC)cc1 [Compound 67, 2-butyl-7-(furan-3-yl)-1-(4-methoxybenzyl)-1H-imidazo[4,5-d]pyridazin-4-amine]	5.69	< 4.70	–	–
CCCCc1nc2c(N)nnc(C3CCOC3)c2n1Cc1ccc(OC)cc1 (centres unmarked) [Compound 59, 2-butyl-1-(4-methoxybenzyl)-7-(tetrahydrofuran-3-yl)-1H-imidazo[4,5-d]pyridazin-4-amine]	6.03	< 4.70	–	–
CCCCc1nc2c(N)nnc(OC(C)C)c2n1CC(C)(C)O [Compound 24, 1-(4-amino-2-butyl-7-isopropoxy-1H-imidazo[4,5-d]pyridazin-1-yl)-2-methylpropan-2-ol]	6.63	5.58	–	–
CCCCc1nc2c(N)nnc(OC(C)C)c2n1Cc1ccc(CN2CCOCC2)cc1 [Compound 102, 2-butyl-7-isopropoxy-1-(4-(morpholinomethyl)benzyl)-1H-imidazo[4,5-d]pyridazin-4-amine]	7.15	5.42	–	–
CCCCc1nc2c(N)nnc(O[C@H]3CCOC3)c2n1Cc1ccc(OC)cc1 [Compound 54, (S)-2-butyl-1-(4-methoxybenzyl)-7-((tetrahydrofuran-3-yl)oxy)-1H-imidazo[4,5-d]pyridazin-4-amine]	6.21	< 4.70	–	–
CCCCc1nc2c(N)nnc(OC(C)C)c2n1Cc1ccc(CN2CCCC2)cc1 [Compound 101, 2-butyl-7-isopropoxy-1-(4-(pyrrolidin-1-ylmethyl)benzyl)-1H-imidazo[4,5-d]pyridazin-4-amine]	7.89	6.45	–	–
CCCCc1nc2c(N)nnc(OC(C)C)c2n1Cc1ccc(CN)cn1 [Compound 26, 1-((5-(aminomethyl)pyridin-2-yl)methyl)-2-butyl-7-isopropoxy-1H-imidazo[4,5-d]pyridazin-4-amine]	6.84	< 4.70	–	–
CCCCc1nc2c(N)nnc(OC(C)CC)c2n1Cc1ccc(OC)cc1 (centres unmarked) [Compound 7, 7-(sec-butoxy)-2-butyl-1-(4-methoxybenzyl)-1H-imidazo[4,5-d]pyridazin-4-amine]	7.34	5.68	–	–
CCCCc1nc2c(N)nnc(/C=C/C(C)C)c2n1Cc1ccc(OC)cc1 [Compound 12, (E)-2-butyl-1-(4-methoxybenzyl)-7-(3-methylbut-1-en-1-yl)-1H-imidazo[4,5-d]pyridazin-4-amine]	6.15	< 4.70	–	–
CCCCc1nc2c(N)nnc(OC(C)C)c2n1Cc1ccc(CNC(=O)c2ccccc2)cc1 [Compound 106, N-(4-((4-amino-2-butyl-7-isopropoxy-1H-imidazo[4,5-d]pyridazin-1-yl)methyl)benzyl)benzamide]	7.17	–	–	–

The next lines start with the values.

pEC50 (human TLR7)	pEC50 (human TLR8)	activation at 20 µM (human TLR7; 24 h, at 20000 nM)	activation at 20 µM (human TLR8; 24 h, at 20000 nM)	SMILES
4.74	< 4.70	–	–	CCCCc1nc2c(N)nnc(OC(C)C)c2n1CCCCN(C(C)=O)C1CS(=O)(=O)C1 [Compound 153, N-[4-(7-amino-2-butyl-4-isopropoxy-imidazo[4,5-d]pyridazin-3-yl)butyl]-N-(1,1-dioxothietan-3-yl)acetamide]
7.07	4.80	–	–	CCCCc1nc2c(N)nnc(OC(C)C)c2n1Cc1ccc(CNCCOCCOCCOCCOC)cc1 [Compound 121, 2-butyl-4-isopropoxy-3-[[4-[[2-[2-[2-(2-methoxyethoxy)ethoxy]ethoxy]ethylamino]methyl]phenyl]methyl]imidazo[4,5-d]pyridazin-7-amine]
7.54	5.85	–	–	CCCCc1nc2c(N)nnc(OC(C)C)c2n1Cc1ccc(CNCCOCCOC)cc1 [Compound 108, 2-butyl-7-isopropoxy-1-(4-(((2-(2-methoxyethoxy)ethyl)amino)methyl)benzyl)-1H-imidazo[4,5-d]pyridazin-4-amine]
–	–	13.5%	10.2%	CCCCc1nc2c(N)nnc(OC(C)C)c2n1Cc1ccc(CNCCOCCOCCOCCOCCOCCOCCOCCOCCOCCOCCOCCOC)cc1 [Compound 123, 2-butyl-4-isopropoxy-3-[[4-[[2-[2-[2-[2-[2-[2-[2-[2-[2-[2-[2-(2-methoxyethoxy)ethoxy]ethoxy]ethoxy]ethoxy]ethoxy]ethoxy]ethoxy]ethoxy]ethoxy]ethoxy]ethylamino]methyl]phenyl]methyl]imidazo[4,5-d]pyridazin-7-amine di2,2,2-trifluoroacetate]
6.43	< 4.70	–	–	CCCCc1nc2c(N)nnc(/C=C/C(C)C)c2n1C[C@H]1CC[C@H](N)CC1 [Compound 139, 1-(((1R,4R)-4-aminocyclohexyl)methyl)-2-butyl-7-((E)-3-methylbut-1-en-1-yl)-1H-imidazo[4,5-d]pyridazin-4-amine]
5.88	< 4.70	–	–	CCCCc1nc2c(N)nnc(CCC(C)C)c2n1C[C@H]1CC[C@H](N)CC1 [Compound 140, 1-(((1R,4R)-4-aminocyclohexyl)methyl)-2-butyl-7-isopentyl-1H-imidazo[4,5-d]pyridazin-4-amine]
6.93	–	–	–	CCCCc1nc2c(N)nnc(OC(C)C)c2n1CCCCCCNC1CS(=O)(=O)C1 [Compound 154, 2-butyl-3-[6-[(1,1-dioxothietan-3-yl)amino]hexyl]-4-isopropoxy-imidazo[4,5-d]pyridazin-7-amine]
